Reference: patent US11802107B2, “Compounds and methods of use” (Signum Biosciences, Inc., priority 2017, dated 2023)
≈ marks a conversion by molar mass, not a printed value. Where a name gives a salt, the structure may show the parent alone. Read-outs that look alike come from different tables or passages of the source.

System: P. acnes (ATCC 6919)
Assay: Minimal inhibitory concentration (MIC) against P. acnes
Type: cell-based, Propionibacterium acnes
Details: P. acnes ATCC 6919, 10^6 CFU/mL
Protocol: To determine minimal inhibitory concentration (MIC), reagents were dissolved in vehicle (5% v/v) and then added to bacteria suspension. P. acnes (ATCC® 6919TM) at 10^6 CFU/mL was incubated with test materials at the concentrations of two-fold serial dilution (0.25-500 μg/mL) and incubated for 72 hours (P. acnes).

[1] = Cutibacterium acnes, ATCC6919, 72 h, read-out: MIC

MIC [1]	MIC (72 hours)	SMILES
> 125 µg/mL	–	CC(C)=CCC/C(C)=C/CC/C(C)=C/CSCC(NC(=O)N1CCCC1C(=O)O)C(=O)O (stereo not drawn) [AD]
> 125 µg/mL	–	CC(C)=CCC/C(C)=C/CC/C(C)=C/CSCC(NC(=O)N(CC(=O)O)CC(=O)O)C(=O)O (stereo not drawn) [AF]
> 125 µg/mL	–	CC(C)=CCC/C(C)=C/CC/C(C)=C/CSCC(NC(=O)COCC(=O)O)C(=O)O (stereo not drawn) [AQ]
> 125 µg/mL	–	C/C(=C\CSCC(NC(=O)N1CCCCC1C(=O)O)C(=O)O)CCCC(C)CCCC(C)CCCC(C)C (stereo not drawn) [AW]
> 125 µg/mL	–	CSCC(NC(=O)N(CC(=O)O)CC(=O)O)C(=O)O (stereo not drawn) [AX]
> 125 µg/mL	–	O=C(O)CN(CC(=O)O)C(=O)NC12CC3CC(CC(C3)C1)C2 [AY]
63 µg/mL (≈ 120 µM)	–	C/C(=C\CSC[C@H](NC(=O)N1CCC1C(=O)O)C(=O)O)CCCC(C)CCCC(C)CCCC(C)C (stereo partly drawn) [AZ]
> 125 µg/mL	–	C/C(=C\CSc1ccc(C(=O)O)cn1)CCCC(C)CCCC(C)CCCC(C)C (stereo not drawn) [BA]
31 µg/mL (≈ 49 µM)	–	C/C(=C\CSC[C@H](NC(=O)Nc1ncc(C(=O)O)c(C(F)(F)F)n1)C(=O)O)CCCC(C)CCCC(C)CCCC(C)C (stereo partly drawn) [BB]
12 µg/mL (≈ 21.6 µM)	–	C/C(=C\CSCC(NC(=O)N1CC(O)CC1C(=O)O)C(=O)O)CCCC(C)CCCC(C)CCCC(C)C (stereo not drawn) [BC]
> 125 µg/mL	–	C/C(=C\CSCC(NC(=O)N1CCCCC1)C(=O)O)CCCC(C)CCCC(C)CCCC(C)C (stereo not drawn) [BD]
23 µg/mL (≈ 41.5 µM)	–	C/C(=C\CSCC(NC(=O)N1CCCC(C(=O)O)C1)C(=O)O)CCCC(C)CCCC(C)CCCC(C)C (stereo not drawn) [BE]
> 125 µg/mL	–	C/C(=C\CSCC(Nc1ncccn1)C(=O)O)CCCC(C)CCCC(C)CCCC(C)C (stereo not drawn) [BF]
42 µg/mL (≈ 80.5 µM)	–	C/C(=C\CSCC(Nc1nccc(C(=O)O)n1)C(=O)O)CCCC(C)CCCC(C)CCCC(C)C (stereo not drawn) [BG]
23 µg/mL (≈ 42.7 µM)	–	C/C(=C\CSC[C@H](NC(=O)N(CC#N)CC(N)=O)C(=O)O)CCCC(C)CCCC(C)CCCC(C)C (stereo partly drawn) [BJ]
31 µg/mL (≈ 59.4 µM)	–	C/C(=C\CSC[C@H](Nc1cnc(C(=O)O)cn1)C(=O)O)CCCC(C)CCCC(C)CCCC(C)C (stereo partly drawn) [BK]
125 µg/mL (≈ 237 µM)	–	C/C(=C\CSC(C)(C)C(NC(=O)CCC(=O)O)C(=O)O)CCCC(C)CCCC(C)CCCC(C)C (stereo not drawn) [BO]
> 125 µg/mL	–	C/C(=C\CSC(C)(C)C(Nc1ncc(C(=O)O)cn1)C(=O)O)CCCC(C)CCCC(C)CCCC(C)C (stereo not drawn) [BP]
0.06 µg/mL	–	CCC[C@@H]1C[C@@H](C(=O)N[C@@H]([C@H]2O[C@H](SC)[C@H](O)[C@@H](O)[C@H]2O)[C@H](C)Cl)N(C)C1 [Clindamycin HCl, reference compound]
12 µg/mL (≈ 23.3 µM)	–	C/C(=C/CSC[C@H](NC(=O)N(C)CC(=O)O)C(=O)O)CCCC(C)CCCC(C)CCCC(C)C (stereo partly drawn) [Compound BI, (2R)-2-{[(carboxymethyl)(methyl)carbamoyl]amino}-3-{[(2Z)-3,7,11,15-tetramethylhexadec-2-en-1-yl]sulfanyl}propanoic acid]
< 0.2 µg/mL	–	C[C@H]1c2cccc(O)c2C(=O)C2=C(O)[C@]3(O)C(=O)C(C(N)=O)=C(O)[C@@H](N(C)C)[C@@H]3[C@@H](O)[C@@H]21 [Doxycycline, reference compound]
> 250 µg/mL	–	CC(=O)NC(C(=O)NC(CSC/C=C(\C)CCCC(C)CCCC(C)CCCC(C)C)C(=O)O)C(C)CO (stereo not drawn) [K]
–	>16 µg/mL	CSCCC(NC(C)=O)C(=O)NC(CSC/C=C(\C)CCCC(C)CCCC(C)CCCC(C)C)C(=O)O (stereo not drawn) [L]
16 µg/mL (≈ 28.8 µM)	–	CC(=O)NC(CC(C)C)C(=O)NC(CSC/C=C(\C)CCCC(C)CCCC(C)CCCC(C)C)C(=O)O (stereo not drawn) [M]
> 250 µg/mL	–	CC(=O)NC(C(=O)NC(CSC/C=C(\C)CCCC(C)CCCC(C)CCCC(C)C)C(=O)O)C(C)O (stereo not drawn) [N]
32 µg/mL (≈ 54.3 µM)	–	CC(=O)NC(Cc1ccccc1)C(=O)NC(CSC/C=C(\C)CCCC(C)CCCC(C)CCCC(C)C)C(=O)O (stereo not drawn) [O]
10 µg/mL (≈ 18 µM)	–	CC(=O)NC(CC(N)=O)C(=O)NC(CSC/C=C(\C)CCCC(C)CCCC(C)CCCC(C)C)C(=O)O (stereo not drawn) [P]
